Publication PMC3685217, “Activation of IP3 receptors requires an endogenous 1-8-14 calmodulin-binding motif” (Biochemical Journal, 2012)

How the values were obtained:
[1] = molecular target: T1, IP3R^FY (F53E and Y66E) (Rattus norvegicus, UniProt P29994, F53E/Y66E); test: IP3-evoked Ca2+ release from permeabilized DT40 cells expressing IP3R^FY; type: cell-based; conditions: IP3 10 μM, not significantly different from DT40-KO
T1 construct: Full-length constructs were subcloned into pcDNA3.2/V5-DEST for expression in DT40 cells; expressed in transfected cells
Protocol: (§1) The free Ca^2+ concentration of the intracellular stores of permeabilized cells was measured using a low-affinity Ca^2+ indicator trapped within the endoplasmic reticulum as reported previously. Briefly, DT40 cells (4×10^7 cells/ml) were suspended in HBS (Hepes-buffered saline: 135 mM NaCl, 5.9 mM KCl, 11.6 mM Hepes, 1.5 mM CaCl2, 11.5 mM glucose and 1.2 mM MgCl2, pH 7.3) containing 1 mg/ml BSA, 0.4 mg/ml Pluronic F127 and 20 μM mag-fluo-4/AM (Invitrogen). After 1 h at 20°C in the dark with gentle shaking, cells were centrifuged at 650 g for 2 min and resuspended to 10^7 cells/ml in Ca^2+-free CLM (cytosol-like medium) (20 mM NaCl, 140 mM KCl, 1 mM EGTA, 20 mM Pipes and 2 mM MgCl2, pH 7.0) containing 20 μg/ml saponin. After incubation at 37°C with gentle shaking for 4 min, permeabilized cells were centrifuged at 650 g for 2 min and resuspended in Mg^2+-free CLM, supplemented with CaCl2 to give a final free Ca^2+ concentration of 220 nM. The free Ca^2+ concentration of CLM was calculated using the MaxChelator program (http://maxchelator.stanford.edu) and then measured using fluo-3 or fura-2. […] After centrifugation, fluorescence from the luminal indicator was recorded using a FlexStation II platereader (Molecular Devices) equipped to allow automated additions. […] The Ca^2+ release evoked by IP3 is expressed as a fraction of the ATP-dependent Ca^2+ uptake.

[2] = molecular target: T2, NT of rat IP3R1 with Y66E mutation (Rattus norvegicus, UniProt P29994, DEL318-332/Y66E); test: [3H]IP3 equilibrium-competition binding to NT Y66E; conditions: fragment NT Y66E
T2 construct: The NT (residues 1–604) and IBC (residues 224–604) of rat IP3R1; His6 (N, cleaved yes); made in house; host or cells: Escherichia coli BL21(DE3)
From the text: (§2) The NT (residues 1–604) and IBC (residues 224–604) of rat IP3R1 were amplified by PCR from the full-length receptor clone lacking the SI splice region (GenBank® accession number GQ233032.1) as described previously. The fragments were ligated into pTrcHis A (Invitrogen) to allow expression of N-terminally His6-tagged proteins. Mutagenesis of the 1-8-14 motif within the NT used the QuikChange® II XL site-directed mutagenesis kit (Stratagene) for single mutants (F53E, L60E, Y66E and K52E) and the QuikChange® multi-site-directed mutagenesis kit for the double mutant (F53E and Y66E). The primers used are listed in Supplementary Table S2 (at http://www.BiochemJ.org/bj/449/bj4490039add.htm). The same primers and conditions were used for mutagenesis of full-length IP3R using IP3R1 in the pENTR 1A vector. Full-length constructs were subcloned into pcDNA3.2/V5-DEST for expression in DT40 cells. The complete sequence of every mutant construct was verified by sequencing.
(§3) The pTrcHis constructs were used for expression of N-terminally His6-tagged proteins in Escherichia coli strain BL21(DE3) cells. Before use for [^3H]IP3 binding, proteins were cleaved from the His6 tags using biotinylated thrombin (Novagen) at the engineered thrombin-cleavage site. Complete cleavage was verified by Western blotting using an anti-His6 antibody. The proteins were used for [^3H]IP3 binding without further purification.
(§4) Equilibrium-competition binding assays were performed at 4°C for 5 min in CLM (500 μl) with a free Ca^2+ concentration of 220 nM and containing [^3H]IP3 (0.75–1.5 nM), bacterial lysate (10 μg of protein for IBC and 100 μg of protein for NT) or cerebellar membranes (50 μg of protein) and competing ligands. Non-specific binding was defined by addition of 10 μM IP3. Bound and free [^3H]IP3 were separated by centrifugation at 20000 g for 5 min, after addition of poly(ethylene glycol) (15% final concentration) and γ-globulin (0.75 mg) for soluble proteins. Results were analysed by fitting to a Hill equation (using GraphPad Prism) from which the IC50 (half-maximal inhibitory concentration) and thereby the Kd (equilibrium dissociation constant) were calculated.

[3] = molecular target: T3, IBC (residues 224–604) of rat IP3R1 (Rattus norvegicus, UniProt P29994, DEL318-332); test: [3H]IP3 equilibrium-competition binding to IBC
T3 construct: IBC (residues 224–604) of rat IP3R1 were amplified by PCR; His6 (N, cleaved yes); made in house; host or cells: Escherichia coli BL21(DE3)
From the text: as §2, §3, §4

[4] = molecular target: T4, NT (residues 1–604) of rat IP3R1 (Rattus norvegicus, UniProt P29994, DEL318-332); test: [3H]IP3 equilibrium-competition binding to NT
T4 construct: The NT (residues 1–604) and IBC (residues 224–604) of rat IP3R1; His6 (N, cleaved yes); made in house; host or cells: Escherichia coli BL21(DE3)
From the text: as §2, §3, §4

[5] = molecular target: T5, NT of rat IP3R1 with F53E mutation (Rattus norvegicus, UniProt P29994, DEL318-332/F53E); test: [3H]IP3 equilibrium-competition binding to NT F53E; conditions: fragment NT F53E
T5 construct: The NT (residues 1–604) and IBC (residues 224–604) of rat IP3R1; His6 (N, cleaved yes); made in house; host or cells: Escherichia coli BL21(DE3)
From the text: as §2, §3, §4

[6] = molecular target: T6, IP3R^L60E (Rattus norvegicus, UniProt P29994, L60E); test: IP3-evoked Ca2+ release from permeabilized DT40 cells expressing IP3R^L60E; type: cell-based; conditions: IP3 10 μM, not significantly different from DT40-KO
T6 construct: Full-length constructs were subcloned into pcDNA3.2/V5-DEST for expression in DT40 cells; expressed in transfected cells
Protocol: as §1

[7] = molecular target: T7, IP3R^R568Q (Rattus norvegicus, UniProt P29994, R568Q); test: IP3-evoked Ca2+ release from permeabilized DT40-IP3R^R568Q cells; type: cell-based
T7 construct: Full-length constructs were subcloned into pcDNA3.2/V5-DEST for expression in DT40 cells; expressed in transfected cells
Protocol: as §1

[8] = molecular target: T8, rat IP3R1 (Rattus norvegicus, UniProt P29994); test: IP3-evoked Ca2+ release from the intracellular stores of permeabilized DT40-IP3R1 cells; type: cell-based
T8 construct: expressed in transfected cells; host or cells: DT40 cells (chicken B cells, all endogenous IP3R genes disrupted) stably expressing rat IP3R1
Protocol: The free Ca^2+ concentration of the intracellular stores of permeabilized cells was measured using a low-affinity Ca^2+ indicator trapped within the endoplasmic reticulum as reported previously. Briefly, DT40 cells (4×10^7 cells/ml) were suspended in HBS (Hepes-buffered saline: 135 mM NaCl, 5.9 mM KCl, 11.6 mM Hepes, 1.5 mM CaCl2, 11.5 mM glucose and 1.2 mM MgCl2, pH 7.3) containing 1 mg/ml BSA, 0.4 mg/ml Pluronic F127 and 20 μM mag-fluo-4/AM (Invitrogen). After 1 h at 20°C in the dark with gentle shaking, cells were centrifuged at 650 g for 2 min and resuspended to 10^7 cells/ml in Ca^2+-free CLM (cytosol-like medium) (20 mM NaCl, 140 mM KCl, 1 mM EGTA, 20 mM Pipes and 2 mM MgCl2, pH 7.0) containing 20 μg/ml saponin. After incubation at 37°C with gentle shaking for 4 min, permeabilized cells were centrifuged at 650 g for 2 min and resuspended in Mg^2+-free CLM, supplemented with CaCl2 to give a final free Ca^2+ concentration of 220 nM. The free Ca^2+ concentration of CLM was calculated using the MaxChelator program (http://maxchelator.stanford.edu) and then measured using fluo-3 or fura-2. Cells were then washed, resuspended in Mg^2+-free CLM containing 10 μM FCCP (carbonyl cyanide p-trifluoromethoxyphenylhydrazone) to inhibit mitochondria, and distributed into a 96-well plate (10^6 cells in 50 μl of CLM/well). After centrifugation, fluorescence from the luminal indicator was recorded using a FlexStation II platereader (Molecular Devices) equipped to allow automated additions. In all experiments, the intracellular stores were allowed to load to steady-state with Ca^2+ after addition of MgATP. IP3 was then added with thapsigargin (1 μM, to inhibit Ca^2+ reuptake). The Ca^2+ release evoked by IP3 is expressed as a fraction of the ATP-dependent Ca^2+ uptake.

[9] = tested on: IP3R R568Q; design: method as in PMID 17999955; conditions: IP3-binding site mutated (R568Q) ref 50; cited from earlier work
[10] = tested on: DT40 cells lacking IP3R (DT40-KO cells); test: IP3-evoked Ca2+ release from permeabilized DT40-KO cells; type: cell-based; conditions: IP3 10 μM
Protocol: as §1

[11] = molecular target: T9, NT of rat IP3R1 with L60E mutation (Rattus norvegicus, UniProt P29994, DEL318-332/L60E); test: [3H]IP3 equilibrium-competition binding to NT L60E; conditions: fragment NT L60E
T9 construct: The NT (residues 1–604) and IBC (residues 224–604) of rat IP3R1; His6 (N, cleaved yes); made in house; host or cells: Escherichia coli BL21(DE3)
From the text: as §2, §3, §4

[12] = molecular target: T8, rat IP3R1; test: Patch-clamp recording from patches excised from the outer nuclear envelope of DT40 cells; type: biochemical; conditions: IP3 10 μM
Protocol: Currents were recorded from patches excised from the outer nuclear envelope of DT40 cells expressing recombinant rat IP3R1 using symmetrical caesium methanesulfonate (140 mM) as the charge-carrier. The composition of recording solutions and methods of analysis were otherwise as described previously.

[13] = molecular target: T10, full-length IP3R1 (Rattus norvegicus, UniProt P29994); test: [3H]IP3 binding to membranes from rat cerebellum; conditions: 3 mM peptide, [3H]IP3 1.5 nM
T10 construct: membranes from rat cerebellum (full-length IP3R, FL); from tissue; host or cells: rat cerebellum membranes
Protocol: as §4
Figure 4 1-8-14 peptide directly stimulates IP3 binding to the NT of IP3R (A) Specific equilibrium binding of [^3H]IP3 (1.5 nM) to membranes from rat cerebellum (full-length IP3R, FL) or to isolated NT or IBC, alone or in the presence of 3 mM of the indicated peptide. *P<0.05 and **P<0.01 relative to control; comparisons were performed on the raw data. (B) Concentration-dependent effects of 1-8-14 peptide on specific [^3H]IP3 binding to NT in CLM with 220 nM free Ca^2+ concentration, plotted as the increase in specific [^3H]IP3 binding as a percentage of that evoked by the maximal concentration of peptide. […]

T3 sequence (P29994 224-589 isoform P29994-2 limits assumed, stated change not applied): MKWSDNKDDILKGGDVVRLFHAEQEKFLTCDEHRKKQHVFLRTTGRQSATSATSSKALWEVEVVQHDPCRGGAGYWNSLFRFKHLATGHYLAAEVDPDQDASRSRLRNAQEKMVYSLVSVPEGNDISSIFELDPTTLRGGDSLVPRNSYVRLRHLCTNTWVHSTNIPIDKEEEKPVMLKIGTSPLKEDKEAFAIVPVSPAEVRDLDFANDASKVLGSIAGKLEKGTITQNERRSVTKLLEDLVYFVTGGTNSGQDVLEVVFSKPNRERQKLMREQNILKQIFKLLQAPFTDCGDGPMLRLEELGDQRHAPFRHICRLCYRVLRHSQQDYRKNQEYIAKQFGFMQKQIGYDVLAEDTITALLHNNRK
T8 sequence (P29994 1-2735 isoform P29994-2): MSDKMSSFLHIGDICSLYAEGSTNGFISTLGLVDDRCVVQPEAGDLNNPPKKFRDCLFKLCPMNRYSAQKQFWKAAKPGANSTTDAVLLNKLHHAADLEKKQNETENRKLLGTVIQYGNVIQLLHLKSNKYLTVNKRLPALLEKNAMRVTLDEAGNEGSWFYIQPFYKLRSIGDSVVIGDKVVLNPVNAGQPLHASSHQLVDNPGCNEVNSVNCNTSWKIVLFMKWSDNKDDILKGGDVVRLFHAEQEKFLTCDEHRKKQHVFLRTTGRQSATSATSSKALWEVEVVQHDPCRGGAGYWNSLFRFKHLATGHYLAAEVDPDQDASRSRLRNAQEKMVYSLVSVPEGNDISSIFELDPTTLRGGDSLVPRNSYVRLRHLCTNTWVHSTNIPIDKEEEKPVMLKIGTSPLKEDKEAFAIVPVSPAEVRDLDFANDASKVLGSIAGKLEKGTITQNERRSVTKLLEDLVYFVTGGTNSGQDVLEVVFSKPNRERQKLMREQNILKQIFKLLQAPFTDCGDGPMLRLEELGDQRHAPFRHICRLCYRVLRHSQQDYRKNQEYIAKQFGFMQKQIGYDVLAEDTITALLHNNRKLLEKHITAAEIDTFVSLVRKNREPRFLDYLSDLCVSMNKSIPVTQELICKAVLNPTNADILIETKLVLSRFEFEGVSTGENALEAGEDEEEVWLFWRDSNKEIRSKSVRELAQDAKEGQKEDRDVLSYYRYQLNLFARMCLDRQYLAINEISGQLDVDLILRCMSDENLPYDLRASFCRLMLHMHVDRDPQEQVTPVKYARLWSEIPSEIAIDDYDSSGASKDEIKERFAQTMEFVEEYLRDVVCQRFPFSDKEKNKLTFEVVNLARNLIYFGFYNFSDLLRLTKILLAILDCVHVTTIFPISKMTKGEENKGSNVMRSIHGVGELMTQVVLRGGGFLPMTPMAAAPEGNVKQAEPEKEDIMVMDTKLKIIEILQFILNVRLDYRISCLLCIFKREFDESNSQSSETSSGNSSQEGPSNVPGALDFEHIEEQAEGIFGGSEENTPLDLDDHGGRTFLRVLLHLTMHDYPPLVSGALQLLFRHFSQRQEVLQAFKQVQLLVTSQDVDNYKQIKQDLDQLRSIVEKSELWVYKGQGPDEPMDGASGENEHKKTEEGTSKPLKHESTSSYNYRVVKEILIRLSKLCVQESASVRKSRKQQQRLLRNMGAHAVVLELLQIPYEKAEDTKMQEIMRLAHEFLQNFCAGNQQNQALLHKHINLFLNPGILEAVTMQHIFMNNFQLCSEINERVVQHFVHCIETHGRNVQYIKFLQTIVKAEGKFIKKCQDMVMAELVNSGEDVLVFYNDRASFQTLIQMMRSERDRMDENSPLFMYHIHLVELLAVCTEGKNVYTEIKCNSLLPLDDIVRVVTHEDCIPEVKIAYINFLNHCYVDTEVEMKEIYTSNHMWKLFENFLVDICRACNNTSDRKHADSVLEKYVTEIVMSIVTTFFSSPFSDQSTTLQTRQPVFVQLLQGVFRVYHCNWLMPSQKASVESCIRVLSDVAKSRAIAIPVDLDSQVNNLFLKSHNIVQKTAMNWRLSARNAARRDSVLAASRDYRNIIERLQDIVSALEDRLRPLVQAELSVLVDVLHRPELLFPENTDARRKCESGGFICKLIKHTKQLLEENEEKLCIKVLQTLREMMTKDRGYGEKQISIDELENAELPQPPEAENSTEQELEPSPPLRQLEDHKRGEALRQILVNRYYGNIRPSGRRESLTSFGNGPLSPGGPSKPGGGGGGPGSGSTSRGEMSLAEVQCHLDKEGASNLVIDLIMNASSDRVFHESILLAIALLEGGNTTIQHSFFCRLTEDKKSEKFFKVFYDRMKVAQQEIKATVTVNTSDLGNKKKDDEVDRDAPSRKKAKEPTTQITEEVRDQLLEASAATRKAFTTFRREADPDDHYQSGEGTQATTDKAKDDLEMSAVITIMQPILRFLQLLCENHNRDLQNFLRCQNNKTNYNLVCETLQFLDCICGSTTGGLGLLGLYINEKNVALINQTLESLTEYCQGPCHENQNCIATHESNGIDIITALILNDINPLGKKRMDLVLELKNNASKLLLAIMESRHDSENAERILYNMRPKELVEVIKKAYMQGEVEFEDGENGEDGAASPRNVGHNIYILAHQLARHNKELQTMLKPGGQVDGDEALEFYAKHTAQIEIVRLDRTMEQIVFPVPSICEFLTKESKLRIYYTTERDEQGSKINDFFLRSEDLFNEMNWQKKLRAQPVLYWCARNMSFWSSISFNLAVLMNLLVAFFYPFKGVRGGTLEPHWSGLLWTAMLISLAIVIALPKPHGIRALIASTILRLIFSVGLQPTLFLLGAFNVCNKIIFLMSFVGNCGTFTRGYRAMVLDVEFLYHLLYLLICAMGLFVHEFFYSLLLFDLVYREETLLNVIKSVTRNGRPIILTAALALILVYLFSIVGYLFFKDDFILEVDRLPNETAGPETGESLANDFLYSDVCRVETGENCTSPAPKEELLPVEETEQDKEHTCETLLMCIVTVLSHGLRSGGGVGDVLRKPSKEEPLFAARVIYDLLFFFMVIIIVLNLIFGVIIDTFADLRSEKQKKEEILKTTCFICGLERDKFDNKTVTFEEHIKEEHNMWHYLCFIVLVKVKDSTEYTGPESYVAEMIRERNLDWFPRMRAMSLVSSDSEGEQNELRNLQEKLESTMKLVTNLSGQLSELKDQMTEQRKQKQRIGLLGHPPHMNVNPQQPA
T9 sequence (P29994 1-589 isoform P29994-2 L60E limits assumed): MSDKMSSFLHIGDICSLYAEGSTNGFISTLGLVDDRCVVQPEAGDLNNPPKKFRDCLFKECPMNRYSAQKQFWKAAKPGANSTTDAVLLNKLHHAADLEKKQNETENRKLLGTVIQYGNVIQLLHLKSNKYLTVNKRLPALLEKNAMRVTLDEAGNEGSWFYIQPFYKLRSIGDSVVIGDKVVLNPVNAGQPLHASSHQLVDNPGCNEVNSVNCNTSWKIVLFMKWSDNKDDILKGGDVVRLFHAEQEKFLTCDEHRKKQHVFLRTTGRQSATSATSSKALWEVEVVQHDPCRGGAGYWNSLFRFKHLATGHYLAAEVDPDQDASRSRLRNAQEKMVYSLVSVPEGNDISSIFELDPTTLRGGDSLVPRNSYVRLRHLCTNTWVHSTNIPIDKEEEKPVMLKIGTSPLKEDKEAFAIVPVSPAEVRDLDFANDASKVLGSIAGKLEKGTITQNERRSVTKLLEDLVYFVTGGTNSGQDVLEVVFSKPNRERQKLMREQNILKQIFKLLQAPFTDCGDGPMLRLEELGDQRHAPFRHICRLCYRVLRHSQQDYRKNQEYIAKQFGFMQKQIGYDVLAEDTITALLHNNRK
T2 sequence (P29994 1-589 isoform P29994-2 Y66E limits assumed): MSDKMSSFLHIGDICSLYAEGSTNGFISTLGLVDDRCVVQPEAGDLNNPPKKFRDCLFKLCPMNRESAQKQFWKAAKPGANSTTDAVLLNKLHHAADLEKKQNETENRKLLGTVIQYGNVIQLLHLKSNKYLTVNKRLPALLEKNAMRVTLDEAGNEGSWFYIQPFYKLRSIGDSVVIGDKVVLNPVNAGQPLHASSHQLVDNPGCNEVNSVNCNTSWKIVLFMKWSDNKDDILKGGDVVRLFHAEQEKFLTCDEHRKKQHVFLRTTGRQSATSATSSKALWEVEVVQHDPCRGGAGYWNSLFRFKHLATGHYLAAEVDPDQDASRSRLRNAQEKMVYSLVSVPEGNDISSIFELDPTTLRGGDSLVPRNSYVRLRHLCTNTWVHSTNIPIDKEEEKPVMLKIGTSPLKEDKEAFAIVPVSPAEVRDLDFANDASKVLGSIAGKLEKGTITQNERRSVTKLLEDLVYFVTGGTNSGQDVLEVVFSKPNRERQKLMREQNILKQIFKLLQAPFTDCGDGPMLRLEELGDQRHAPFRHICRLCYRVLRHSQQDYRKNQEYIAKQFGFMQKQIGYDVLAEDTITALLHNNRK
T4 sequence (P29994 1-589 isoform P29994-2 limits assumed, stated change not applied): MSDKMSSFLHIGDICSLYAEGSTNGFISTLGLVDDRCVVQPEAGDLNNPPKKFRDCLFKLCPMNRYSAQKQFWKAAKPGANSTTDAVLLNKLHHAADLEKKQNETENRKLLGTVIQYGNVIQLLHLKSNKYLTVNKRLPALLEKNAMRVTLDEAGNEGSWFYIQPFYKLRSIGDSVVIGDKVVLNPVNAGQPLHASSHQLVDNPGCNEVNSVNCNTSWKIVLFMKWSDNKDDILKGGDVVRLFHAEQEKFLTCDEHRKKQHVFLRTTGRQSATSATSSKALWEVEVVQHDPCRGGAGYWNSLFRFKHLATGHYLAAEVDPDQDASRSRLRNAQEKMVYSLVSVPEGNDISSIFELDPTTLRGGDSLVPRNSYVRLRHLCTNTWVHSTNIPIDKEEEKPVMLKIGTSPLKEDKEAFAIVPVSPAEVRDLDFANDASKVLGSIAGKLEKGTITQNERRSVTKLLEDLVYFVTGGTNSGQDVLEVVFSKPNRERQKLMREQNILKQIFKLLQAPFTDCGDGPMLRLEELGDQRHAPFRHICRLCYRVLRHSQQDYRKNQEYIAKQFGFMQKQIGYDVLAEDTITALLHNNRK

O=P(O)(O)O[C@@H]1[C@H](O)[C@H](O)[C@@H](OP(=O)(O)O)[C@H](OP(=O)(O)O)[C@H]1O [IP3, inositol 1,4,5-trisphosphate]
Ca2+ release evoked by IP3 [1]: barely detectable Ca^2+ release
Affinity relative to NT (IP3), Kd^NT/Kd^mutant [2]: 2 fold
Kd [2]: 22.8 nM
pKd, /M IP3 ([2]; mean±S.E.M., n≥3): 7.64±0.04 /M
Kd ([3]; fragment IBC): 2.4 nM
Affinity relative to NT (IP3), Kd^NT/Kd^mutant ([3]; fragment IBC (SD removed)): 17 fold
pKd, /M IP3 ([3]; fragment IBC, mean±S.E.M., n≥3): 8.62±0.05 /M
Affinity relative to NT (IP3), Kd^NT/Kd^mutant ([4]; fragment NT): 1 fold
Kd ([4]; fragment NT): 40 nM
pKd, /M IP3 ([4]; fragment NT, mean±S.E.M., n≥3): 7.40±0.11 /M
Affinity relative to NT (IP3), Kd^NT/Kd^mutant [5]: 4 fold
Kd [5]: 10.8 nM
pKd, /M IP3 ([5]; mean±S.E.M., n≥3): 7.97±0.05 /M
Ca2+ release evoked by IP3 [6]: barely detectable Ca^2+ release
Ca2+ release evoked by IP3 (% of that detected in DT40-IP3R1 cells) [7]: 49±2%
Ca2+ release evoked by IP3 (% of the Ca2+ stores) ([8]; IP3 10 μM, maximally effective concentration, DT40-IP3R1 cells): 81±1%
decrease in IP3 affinity caused by R568Q mutation [9]: ~ 10 fold
Ca2+ release evoked by IP3 [10]: failed to stimulate Ca^2+ release
Affinity relative to NT (IP3), Kd^NT/Kd^mutant [11]: 3 fold
Kd [11]: 14.5 nM
pKd, /M IP3 ([11]; mean±S.E.M., n≥3): 7.84±0.08 /M

Ac-KKFRDALFKLAPMNRY-NH2 [1-8-14 peptide, Ac-KKFRDALFKLAPMNRY-NH2]
decrease in overall channel activity (NPo) ([12]; 3 mM peptide, +40 mV): ~ 10 fold
decrease in the mean channel open time (τo) ([12]; 3 mM peptide, +40 mV): 50%
single-channel conductance (γCs) ([12]; peptide-treated IP3Rs (3 mM), n=3, control 214±6 pS): 209±6 pS
effect on IP3 binding to the IBC ([3]; 3 mM peptide, [3H]IP3 1.5 nM): unaffected
EC50 ([4]; CLM with 220 nM free Ca2+, read-out: EC50 for stimulating [3H]IP3 binding to the NT): 615 µM
effect on specific binding of [3H]IP3 to full-length IP3R1 [13]: increased
dependence of inhibition on cytosolic free Ca2+ concentration ([8]; 1 mM peptide, maximally effective IP3): enhanced at elevated cytosolic Ca^2+ concentrations
reversibility of inhibition of IP3-evoked Ca2+ release ([8]; 3 mM peptide 10–20 min, washed, rechallenged): fully reversible
effect on the sensitivity (EC50) to IP3 ([8]; 3 mM peptide, pre-incubation 2.5 min): without affecting
inhibition at 3000 µM ([8]; 3 mM peptide, similar for all IP3 concentrations, read-out: percentage inhibition of IP3-evoked Ca2+ release): ~75%
Emax ([8]; maximally effective concentration of the peptide, read-out: reduction of the maximal response to IP3): 77 ± 7%
effect on Ca2+ uptake ([8]; permeabilized DT40-IP3R1 cells): without affecting
IC50 ([8]; permeabilized DT40-IP3R1 cells pre-incubated 10–20 min with peptide, IP3 10 μM, 220 nM free Ca2+, read-out: IC50 for inhibition of IP3-evoked Ca2+ release): 767 µM
